In PMC11350758, “Development of Xanthoangelol-Derived Compounds with Membrane-Disrupting Effects against Gram-Positive Bacteria” (Antibiotics, 2024):
≈ marks a conversion by molar mass, not a printed value.

Columns and labels:
red blood cells = assay: Hemolysis assay; assay type: cell-based, Sheep; conditions: concentration required to lyse 50% of red blood cells; 37 °C, 1 h
Protocol: (§1) All target derivatives were assessed for their in vitro antibacterial activities using a broth microdilution assay to test their minimum inhibitory concentrations (MICs) against six Gram-positive strains (S. aureus ATCC31007, S. aureus ATCC25923, S. aureus ATCC43300, E. faecalis ATCC29212, B. subtilis ATCC9372, and S. epidermidis ATCC12228) and four Gram-negative strains (A. baumannii ATCC19606, K. pneumonia ATCC10031, E. coli ATCC25922, and P. aeruginosa ATCC27853). These compounds were also evaluated for their hemolytic activities and membrane selectivity by determining their HC50 (the concentration required to lyse 50% of red blood cells) and SI (HC50/MICs) values, respectively, and vancomycin was used as the positive drug.
To further detect the hemolytic toxicity and therapeutic potential of these derivatives, we proceeded to examine the hemolytic activities and membrane selectivity of these derivatives. The HC50 value was defined as the concentration needed for a compound to lyse 50% of red blood cells, and it is often used to evaluate the hemolytic toxicity to eukaryotic cells. […] The selectivity index (SI) was calculated by HC50/MICs of S. aureus ATCC43300 and was used to assess the potency and safety of the compounds. […] Thus, compound 9h was selected as a representative molecule for the in-depth in vitro and in vivo studies.
Sheep blood was used to isolate red blood cells (RBCs), which were then resuspended in 1× PBS (5%). The compounds were dissolved in PBS to give an initial concentration of 5.12 mg/mL, compound solution (100 μL) was added to the first well of a 96-well plate, two-fold serial dilutions of compounds were prepared in 96-well plates, and then 150 μL of 5% RBC suspension was added to each well. This was followed by incubation at 37 °C for 1 h. After incubation, the plate was centrifuged (3500 rpm, 5 min), and 100 μL of supernatant solution from each well was carefully pipetted into a new plate. The absorbance values were measured at 540 nm. Erythrocyte hemolysis rate = (Absorbancecompound – Absorbance negative control)/(Absorbance1% Triton X-100 − Absorbance negative control) × 100%. All biological experiments were repeated three times.

[1] = tested on: Enterococcus faecalis ATCC51299, vancomycin-resistant strain; assay: MIC, broth microdilution; assay type: cell-based; conditions: Enterococcus faecalis ATCC51299, vancomycin-resistant; read-out: MIC E. f. 51299
Protocol: (§2) MICs of the derivatives were determined by the micro broth dilution method according to the American Clinical and Laboratory Standards Institute (CLSI) standards. Briefly, 2-fold serial dilutions of target compounds were prepared in 96-well plates containing TSB broth. An equal volume of bacterial suspension (10^6 CFU/mL) was then pipetted into each well, and the mixture was incubated at 37 °C for 24 h. […] All biological experiments were repeated three times.

[2] = tested on: Enterococcus faecium ATCC51559, vancomycin-resistant strain; assay: MIC, broth microdilution; assay type: cell-based; conditions: Enterococcus faecium ATCC51559, vancomycin-resistant; read-out: MIC E. f. 51559
Protocol: as §2

S. aureus = assay: MIC, summary over the S. aureus strains tested; assay type: cell-based; conditions: Staphylococcus aureus; over the three S. aureus strains tested; read-out: MICs against S. aureus
Protocol: as §1, §2

[3] = tested on: Staphylococcus aureus ATCC25923, erythromycin-susceptible strain; assay: MIC, broth microdilution; assay type: cell-based; conditions: Staphylococcus aureus ATCC25923; read-out: MIC S. a. 25923
Protocol: as §1, §2

[4] = tested on: Klebsiella pneumonia ATCC10031; assay: MIC, broth microdilution; assay type: cell-based; conditions: Klebsiella pneumoniae; Klebsiella pneumonia ATCC10031; read-out: MIC K. p. 10031
Protocol: as §1, §2

[5] = tested on: Acinetobacter baumannii ATCC19606; assay: MIC, broth microdilution; assay type: cell-based; conditions: Acinetobacter baumannii ATCC19606; read-out: MIC A. b. 19606
Protocol: as §1, §2

[6] = tested on: Staphylococcus aureus ATCC31007, penicillin-resistant strain; assay: MIC, broth microdilution; assay type: cell-based; conditions: Staphylococcus aureus ATCC31007; read-out: MIC S. a. 31007
Protocol: as §1, §2

[7] = tested on: Escherichia coli ATCC25922, penicillin-susceptible strain; assay: MIC, broth microdilution; assay type: cell-based; conditions: Escherichia coli ATCC25922; read-out: MIC E. c. 25922
Protocol: as §1, §2

[8] = tested on: Staphylococcus epidermidis ATCC12228, erythromycin-susceptible strain; assay: MIC, broth microdilution; assay type: cell-based; conditions: Staphylococcus epidermidis ATCC12228; read-out: MIC S. e. 12228
Protocol: as §1, §2

[9] = tested on: Bacillus subtilis ATCC9372, penicillin-susceptible strain; assay: MIC, broth microdilution; assay type: cell-based; conditions: Bacillus subtilis ATCC9372; read-out: MIC B. s. 9372
Protocol: as §1, §2

[10] = tested on: Pseudomonas aeruginosa ATCC27853, penicillin-susceptible strain; assay: MIC, broth microdilution; assay type: cell-based; conditions: Pseudomonas aeruginosa ATCC27853; read-out: MIC P. a. 27853
Protocol: as §1, §2

[11] = tested on: Enterococcus faecalis ATCC29212, vancomycin-susceptible strain; assay: MIC, broth microdilution; assay type: cell-based; conditions: Enterococcus faecalis ATCC29212; read-out: MIC E. f. 29212
Protocol: as §1, §2

[12] = tested on: Staphylococcus aureus ATCC43300, methicillin-resistant strain; assay: microbe, parasite or virus in culture; assay type: cell-based; conditions: ATCC 43300 / MRSA; Staphylococcus aureus ATCC43300 (MRSA); read-out: MIC S. a 43300
Protocol: as §1, §2

[13] = tested on: Gram-positive strains tested; assay: MIC, summary over the Gram-positive strains tested; assay type: cell-based; conditions: read-out: MICs against the Gram-positive strains tested, range over the Gram-positive panel
Protocol: as §1, §2

| Structure (SMILES) | HC50 (red blood cells) | MIC [1] | MIC [2] | MIC (S. aureus) | MIC [3] | MIC [4] | MIC [5] | MIC [6] | MIC [7] | MIC [8] | MIC [9] | MIC [10] | MIC [11] | MIC [12] | MIC [13] |
| --- | --- | --- | --- | --- | --- | --- | --- | --- | --- | --- | --- | --- | --- | --- | --- |
| CC[N+](CC)(CC)CCCOc1c2c(c3c(c1C(C)=O)OC(C)(CCC=C(C)C)C=C3)OC(C)(CCC=C(C)C)C=C2 (stereo not drawn) [Compound 9a, 3-((6-Acetyl-2,8-dimethyl-2,8-bis(4-methylpent-3-en-1-yl)-2H,8H-pyrano[2,3-f]chromen-5-yl)oxy)-N,N,N-triethylpropan-1-aminium] | 40.4 µg/mL | 4 µg/mL | 4 µg/mL | 2 to 4 µg/mL | 2 µg/mL | > 128 µg/mL | 128 µg/mL | 4 µg/mL | > 128 µg/mL | 2 µg/mL | 1 µg/mL | > 128 µg/mL | 4 µg/mL | 4 µg/mL | – |
| CCN(CC)CCCOc1c2c(c3c(c1C(C)=O)OC(C)(CCC=C(C)C)C=C3)OC(C)(CCC=C(C)C)C=C2 (stereo not drawn) [Compound 9c, 1-(5-(3-(Diethylamino)propoxy)-2,8-dimethyl-2,8-bis(4-methylpent-3-en-1-yl)-2H,8H-pyrano[2,3-f]chromen-6-yl)ethan-1-one] | 187.6 µg/mL | 8 µg/mL (≈ 14.6 µM) | 4 µg/mL (≈ 7.28 µM) | 2 to 4 µg/mL (≈ 3.64 to 7.28 µM) | 2 µg/mL (≈ 3.64 µM) | > 128 µg/mL | > 128 µg/mL | 2 µg/mL (≈ 3.64 µM) | > 128 µg/mL | 1 µg/mL (≈ 1.82 µM) | 2 µg/mL (≈ 3.64 µM) | > 128 µg/mL | 1 µg/mL (≈ 1.82 µM) | 4 µg/mL (≈ 7.28 µM) | – |
| CC(=O)c1ccc2c(c1OCCCNCCCN1CCCC1)C=CC(C)(CCC=C(C)C)O2 (stereo not drawn) [Compound 5h] | 84.7 µg/mL | 32 µg/mL (≈ 70.4 µM) | 32 µg/mL (≈ 70.4 µM) | 8 µg/mL (≈ 17.6 µM) | 8 µg/mL (≈ 17.6 µM) | 8 µg/mL (≈ 17.6 µM) | 4 µg/mL (≈ 8.8 µM) | 8 µg/mL (≈ 17.6 µM) | 8 µg/mL (≈ 17.6 µM) | 4 µg/mL (≈ 8.8 µM) | 8 µg/mL (≈ 17.6 µM) | 16 µg/mL (≈ 35.2 µM) | 8 µg/mL (≈ 17.6 µM) | 8 µg/mL (≈ 17.6 µM) | – |
| CC(=O)c1ccc2c(c1OCCCN(C)CC(C)(C)CN(C)C)C=CC(C)(CCC=C(C)C)O2 (stereo not drawn) [Compound 5g, 1-(5-(3-((3-(Dimethylamino)-2,2-dimethylpropyl)(methyl)amino)propoxy)-2-methyl-2-(4-methylpent-3-en-1-yl)-2H-chromen-6-yl)ethan-1-one] | 183.1 µg/mL | 32 µg/mL (≈ 68 µM) | 16 µg/mL (≈ 34 µM) | 8 µg/mL (≈ 17 µM) | 8 µg/mL (≈ 17 µM) | 4 µg/mL (≈ 8.5 µM) | 8 µg/mL (≈ 17 µM) | 8 µg/mL (≈ 17 µM) | 16 µg/mL (≈ 34 µM) | 4 µg/mL (≈ 8.5 µM) | 8 µg/mL (≈ 17 µM) | 128 µg/mL (≈ 272 µM) | 8 µg/mL (≈ 17 µM) | 8 µg/mL (≈ 17 µM) | – |
| CC[N+](CC)(CC)CCCOc1c(C(C)=O)ccc2c1C=CC(C)(CCC=C(C)C)O2 (stereo not drawn) [Compound 5a, 3-((6-Acetyl-2-methyl-2-(4-methylpent-3-en-1-yl)-2H-chromen-5-yl)oxy)-N,N,N-triethylpropan-1-aminium] | 571.5 µg/mL | 16 µg/mL | 16 µg/mL | 8 to 128 µg/mL | 8 µg/mL | 128 µg/mL | > 128 µg/mL | 128 µg/mL | > 128 µg/mL | 64 µg/mL | 64 µg/mL | > 128 µg/mL | 64 µg/mL | 64 µg/mL | – |
| CC(=O)c1c(OCCCSC(=N)N)c2c(c3c1OC(C)(CCC=C(C)C)C=C3)OC(C)(CCC=C(C)C)C=C2 (stereo not drawn) [Compound 9e, 2-(3-((6-Acetyl-2,8-dimethyl-2,8-bis(4-methylpent-3-en-1-yl)-2H,8H-pyrano[2,3-f]chromen-5-yl)oxy)propyl)isothiouronium] | >1280 µg/mL | > 128 µg/mL | > 128 µg/mL | – | 8 µg/mL (≈ 14.5 µM) | > 128 µg/mL | > 128 µg/mL | 128 µg/mL (≈ 232 µM) | > 128 µg/mL | 128 µg/mL (≈ 232 µM) | 64 µg/mL (≈ 116 µM) | > 128 µg/mL | 64 µg/mL (≈ 116 µM) | 64 µg/mL (≈ 116 µM) | > 64 µg/mL |
| CC(=O)c1c(OCCCN2CC(C)OC(C)C2)c2c(c3c1OC(C)(CCC=C(C)C)C=C3)OC(C)(CCC=C(C)C)C=C2 (stereo not drawn) [Compound 9d, 1-(5-(3-(2,6-Dimethylmorpholino)propoxy)-2,8-dimethyl-2,8-bis(4-methylpent-3-en-1-yl)-2H,8H-pyrano[2,3-f]chromen-6-yl)ethan-1-one] | >1280 µg/mL | > 128 µg/mL | > 128 µg/mL | – | > 128 µg/mL | > 128 µg/mL | > 128 µg/mL | > 128 µg/mL | > 128 µg/mL | > 128 µg/mL | > 128 µg/mL | > 128 µg/mL | > 128 µg/mL | > 128 µg/mL | > 64 µg/mL |
| CC(=O)c1ccc2c(c1OCCCN1CC(C)OC(C)C1)C=CC(C)(CCC=C(C)C)O2 (stereo not drawn) [Compound 5d, 1-(5-(3-(2,6-Dimethylmorpholino)propoxy)-2-methyl-2-(4-methylpent-3-en-1-yl)-2H-chromen-6-yl)ethan-1-one] | 746.5 µg/mL | > 128 µg/mL | > 128 µg/mL | – | > 128 µg/mL | 128 µg/mL (≈ 290 µM) | 128 µg/mL (≈ 290 µM) | > 128 µg/mL | > 128 µg/mL | > 128 µg/mL | > 128 µg/mL | > 128 µg/mL | > 128 µg/mL | > 128 µg/mL | – |
| CC(=O)c1c(OCCC[n+]2ccccc2)c2c(c3c1OC(C)(CCC=C(C)C)C=C3)OC(C)(CCC=C(C)C)C=C2 (stereo not drawn) [Compound 9b, 1-(3-((6-Acetyl-2,8-dimethyl-2,8-bis(4-methylpent-3-en-1-yl)-2H,8H-pyrano[2,3-f]chromen-5-yl)oxy)propyl)pyridin-1-ium] | 26.6 µg/mL | 4 µg/mL | 4 µg/mL | – | 2 µg/mL | 32 µg/mL | 32 µg/mL | 4 µg/mL | 128 µg/mL | 32 µg/mL | 2 µg/mL | > 128 µg/mL | 2 µg/mL | 1 µg/mL | – |
| CCN(CC)CCCOc1c(C(C)=O)ccc2c1C=CC(C)(CCC=C(C)C)O2 (stereo not drawn) [Compound 5c, 1-(5-(3-(Diethylamino)propoxy)-2-methyl-2-(4-methylpent-3-en-1-yl)-2H-chromen-6-yl)ethan-1-one] | 324.1 µg/mL | 128 µg/mL (≈ 320 µM) | 64 µg/mL (≈ 160 µM) | 8 to 128 µg/mL (≈ 20 to 320 µM) | 32 µg/mL (≈ 80.1 µM) | 16 µg/mL (≈ 40 µM) | 32 µg/mL (≈ 80.1 µM) | 32 µg/mL (≈ 80.1 µM) | 128 µg/mL (≈ 320 µM) | 16 µg/mL (≈ 40 µM) | 16 µg/mL (≈ 40 µM) | 32 µg/mL (≈ 80.1 µM) | 32 µg/mL (≈ 80.1 µM) | 32 µg/mL (≈ 80.1 µM) | – |
